Assay results: patent US12281334B2, “Multi donor stem cell compositions and methods of making same” (Children's Hospital Medical Center, priority 2017, dated 2025)
“Also recorded” adds a separate entry of the source.

Experiments:
[1] = system: pooled iPSCs (two fluorescently labeled donors and one puromycin resistant donor); assay: Donor ratio change by drug selection monitored by eDNA (drop out assay); type: cell-based, human; settings: puromycin containing media; fluorescence imaging and eDNA donor identification PCR
From the text: FIG. 22. Donor ratio change monitored by gDNA in the culture medium. To confirm the eDNA donor identification, Applicant monitored cell ratio change by drug selection. Two types of fluorescently labeled cells and puromycin resistant cells were used as a positive control.
(§1) In one aspect, a “Drop out assay” is disclosed. In this aspect, genomic DNA in environments (environmental DNA, or “eDNA”), a form of cell-free DNA (cfDNA), exists in the environment to determine biodiversity such as sea and soil. Detection of circulating tumor derived cfDNA is an evolving component of cancer precision medicine. […] Remarkably, when applied into pooled stem cell culture, quantitative detection of respective donor correlates with the cell ratio in culture. Therefore, Applicant concluded eDNA-based noninvasive donor identification method is effective decoding strategy for pooled stem cell culture by eDNA in culture supernatant. PCR of eDNA in culture supernatant can be carried out using donor-specific SNP primers. Each SNP primer may be standardized, and the donor ratio of the iPSC pool can be estimated using eDNA contained in the culture supernatant (see FIG. 19). As a result, the cell ratio may be successfully determined by PCR of eDNA in the medium (see FIG. 20). […] In order to confirm the sensitivity of eDNA donor identification, Applicant monitored cell ratio change by drug selection. […]

[2] = system: fat-treated hepatocytes prepared from 11 iPSCs pool; assay: Drop-out assay using induced hepatocytes treated with oleic acid and troglitazone; type: cell-based, human; settings: eDNA based drop-out assay; oleic acid treated hepatocyte pool from eleven donors
Experimental: FIG. 23. Drop-out assay using induced hepatocytes treated with oleic acid and troglitazone. Drug screening assays for fat accumulation and drug treatment were performed using hepatocytes prepared from iPSC pools.
as §1

Row | SMILES | fate of non-resistant iPSCs under drug selection [1] | sensitivity to drug induced hepatotoxicity, high fat accumulation risk donor cells vs healthy donor derived cells [2]
1 | COc1ccc(C[C@H](N)C(=O)N[C@H]2[C@@H](O)[C@H](n3cnc4c(N(C)C)ncnc43)O[C@@H]2CO)cc1 [puromycin] | non-resistant iPSCs were disappeared on the second day of treatment; also recorded: two other donors died due to puromycin toxicity | –
2 | Cc1c(C)c2c(c(C)c1O)CCC(C)(COc1ccc(CC3SC(=O)NC3=O)cc1)O2 (centres unmarked) [troglitazone] | – | significantly more sensitive
